Laboratory results published in US10947188B2, “Small molecule ferroptosis inducers” (THE TRUSTEES OF COLUMBIA UNIVERSITY IN THE CITY OF NEW YORK, priority 2016, dated 2021).

Test system: BJeLR
Test: Modulatory profiling: Alamar Blue viability, lethal compound cotreated with death modulator (EC50, AUC); as to AUC, modulator BJ.3MA: reference of the scale not given here; as to AUC, modulator BJ.ALLN: reference of the scale not given here; as to AUC, modulator BJ.Boc D: reference of the scale not given here; as to AUC, modulator BJ.CHX: reference of the scale not given here; as to AUC, modulator BJ.Co2+: reference of the scale not given here; as to AUC, modulator BJ.DPQ: reference of the scale not given here; as to AUC, modulator BJ.Gd3+: reference of the scale not given here; as to AUC, modulator BJ.LNAME: reference of the scale not given here; as to AUC, modulator BJ.NAD+: reference of the scale not given here; as to AUC, modulator BJ.NMMA: reference of the scale not given here; as to AUC, modulator BJ.Nec-1: reference of the scale not given here; as to AUC, modulator BJ.Pepstatin: reference of the scale not given here; as to AUC, modulator BJ.TLCK: reference of the scale not given here
Assay type: cell-based, human
Set-up: AUC, modulator BJ.Gd3+ / AUC, modulator BJ.LNAME / AUC, modulator BJ.Lmin / AUC, modulator BJ.3MA / AUC, modulator BJ.ALLN / AUC, modulator BJ.Boc D / AUC, modulator BJ.CHX / AUC, modulator BJ.Co2+ / AUC, modulator BJ.Nec-1 / AUC, modulator BJ.Pepstatin / AUC, modulator BJ.TLCK / AUC, modulator BJ.atoc / AUC, modulator BJ.trolox / AUC, modulator BJ.zVAD: unit not given beside the values
Conditions: BJeLR cells, modulatory profile value (AUC); for AUC, modulator BJ.3MA: lethal compound cotreated with modulator 3MA; for AUC, modulator BJ.ALLN: lethal compound cotreated with modulator ALLN; for AUC, modulator BJ.Boc D: lethal compound cotreated with modulator Boc D; for AUC, modulator BJ.CHX: lethal compound cotreated with modulator CHX; for AUC, modulator BJ.Co2+: lethal compound cotreated with modulator Co2+; for AUC, modulator BJ.DPQ: lethal compound cotreated with modulator DPQ; for AUC, modulator BJ.Gd3+: lethal compound cotreated with modulator Gd3+; for AUC, modulator BJ.LNAME: lethal compound cotreated with modulator LNAME; for AUC, modulator BJ.Lmin/NAD+: lethal compound cotreated with modulator Lmin/NAD+; for AUC, modulator BJ.Lmin: lethal compound cotreated with modulator Lmin; for AUC, modulator BJ.NAD+: lethal compound cotreated with modulator NAD+; for AUC, modulator BJ.NMMA: lethal compound cotreated with modulator NMMA; for AUC, modulator BJ.Nec-1: lethal compound cotreated with modulator Nec-1; for AUC, modulator BJ.Pepstatin: lethal compound cotreated with modulator Pepstatin; for AUC, modulator BJ.TLCK: lethal compound cotreated with modulator TLCK; for AUC, modulator BJ.atoc: lethal compound cotreated with modulator atoc; for AUC, modulator BJ.trolox: lethal compound cotreated with modulator trolox; for AUC, modulator BJ.zVAD: lethal compound cotreated with modulator zVAD

| Structure (SMILES) | AUC, modulator BJ.3MA | AUC, modulator BJ.ALLN | AUC, modulator BJ.Boc D | AUC, modulator BJ.CHX | AUC, modulator BJ.Co2+ | AUC, modulator BJ.DPQ | AUC, modulator BJ.Gd3+ | AUC, modulator BJ.LNAME | AUC, modulator BJ.Lmin/NAD+ | AUC, modulator BJ.Lmin | AUC, modulator BJ.NAD+ | AUC, modulator BJ.NMMA | AUC, modulator BJ.Nec-1 | AUC, modulator BJ.Pepstatin | AUC, modulator BJ.TLCK | AUC, modulator BJ.atoc | AUC, modulator BJ.trolox | AUC, modulator BJ.zVAD |
| --- | --- | --- | --- | --- | --- | --- | --- | --- | --- | --- | --- | --- | --- | --- | --- | --- | --- | --- |
| CC(C)C[C@H](NC(=O)[C@H](Cc1ccccc1)NC(=O)c1cnccn1)B(O)O [Bortezomib] | 0.001928 | −0.1031 | 0.03032 | 0.2984 | 0.2379 | −0.007392 | −0.03227 | −0.008649 | 0.1491 | 0.09993 | 0.05175 | −0.0002968 | 0.002293 | 0.000698 | 0.07108 | 0.01647 | 0.01237 | 0.005086 |
| COc1ccccc1/C=C/C1(C(=O)NC2CCCC2)CC(=O)N1c1ccc(F)cc1 (stereo not drawn) [CIL1] | 0.0947 | −0.03319 | −0.0465 | −0.08681 | 0.09572 | −0.01655 | −0.001577 | −0.02103 | −0.01947 | −0.0142 | 0.03941 | −0.02498 | 0.0816 | 0.07639 | 0.01375 | 0.05385 | 0.08302 | −0.04705 |
| CC1CC(C)(C)Nc2ccc(OC(=O)c3ccco3)cc21 (stereo not drawn) [CIL4] | 0.08316 | −0.003083 | −0.01828 | −0.009993 | −0.1747 | −0.003969 | 0.05533 | −0.01288 | 0.08674 | −0.002867 | 0.02731 | −0.01566 | 0.1015 | 0.08231 | 0.06929 | 0.004307 | 0.008406 | 0.01242 |
| CN(C)CC(O)Cn1c2ccc(Cl)cc2c2cc(Cl)ccc21 (stereo not drawn) [CIL5] | 0.08524 | −0.1163 | −0.07609 | −0.0324 | 0.04705 | 0.002876 | 0.01146 | −0.009787 | −0.01738 | −0.03698 | 2.99E−05 | −0.0271 | 0.03195 | 0.06042 | −0.02603 | −0.00271 | 0.0183 | −0.02054 |
| O=C1c2ccccc2-c2onc3ccc(Oc4ccccc4)c1c23 [CIL6] | 0.1191 | −0.0496 | −0.05247 | 0.1353 | 0.06961 | 0.01365 | 0.006848 | −0.02637 | −0.0638 | −0.03874 | 0.02657 | 0.006287 | 0.01237 | 0.03711 | −0.01536 | 0.01482 | −0.006777 | −0.003192 |
| OCCNCC(O)Cn1c2ccc(Br)cc2c2cc(Br)ccc21 (stereo not drawn) [CIL7] | 0.09188 | −0.02876 | −0.04946 | −0.01056 | 0.09999 | 0.06721 | −0.01897 | −0.03182 | 0.01771 | 0.01256 | 0.009046 | −0.01533 | 0.02534 | 0.06231 | −0.02373 | 0.0008495 | 0.0424 | −0.05834 |
| COc1ccc(Nc2ccc3c(c2)=NC2(CCCCC2)[N+]=3[O-])cc1 [CIL9] | 0.0465 | −0.1202 | −0.06171 | 0.03696 | −0.009162 | −0.01225 | −0.01038 | 0.01336 | 0.01499 | −0.03967 | 0.0007181 | −0.01541 | 0.02689 | 0.0182 | −0.01752 | 0.02754 | 0.05397 | −0.02708 |
| O=C1C(Cl)=C(N2CCOCC2)C(=O)C(Cl)=C1N1CCOCC1 [CIL11] | 0.09004 | 0.01538 | −0.04323 | 0.1239 | 0.07771 | −0.01566 | 0.02905 | −0.0003217 | 0.01344 | −0.04034 | −0.03919 | −0.00378 | 0.02974 | 0.04125 | −0.01155 | −0.02082 | −0.01782 | −0.004517 |
| Cc1cccnc1Nc1nc(-c2ccccn2)cs1 [CIL13] | 0.09083 | −0.03933 | −0.02989 | −0.1264 | 0.5287 | 0.007392 | 0.04263 | 0.01544 | −0.05456 | −0.03412 | 0.01378 | −0.03177 | 0.04738 | 0.03784 | 0.3412 | −0.005646 | −0.006649 | −0.004568 |
| C[S+]([O-])c1nc(-c2ccc(Br)cc2)cc(-c2ccccc2)c1C#N (stereo not drawn) [CIL17] | 0.07927 | −0.07478 | −0.03116 | −0.0462 | −0.04764 | 0.004679 | −0.04 | −0.008054 | −0.03209 | −0.02464 | −0.01632 | −0.01688 | 0.02959 | 0.03912 | −0.07864 | 0.006451 | −0.001174 | −0.02313 |
| CCCCNc1cc(C)nc(NCc2ccccc2)n1 [CIL18] | 0.0654 | −0.04507 | −0.01841 | −0.01582 | 0.08943 | −0.01318 | −0.01659 | −0.01628 | −0.0502 | −0.05505 | 0.00749 | −0.02371 | 0.0226 | 0.04724 | −0.03824 | −0.0004228 | 0.0395 | −0.005402 |
